Measurements as given in the kinase profiling compilation of Christmann-Franck et al. (2016).

Key:
Assay in all cases: radiometric filter-binding kinase assay, Kinase HotSpot
Settings in all cases: compound 0.5 µM; ATP 10 µM
PKN2 (human) = PKN2 (human) (UniProt Q16513)
PRKCB1 (human) = PRKCB1 (human) (UniProt P05771)
EPHA4 (human) = EPHA4 (human) (UniProt P54764)
EPHB2 (human) = EPHB2 (human) (UniProt P29323)
HIPK3 (human) = HIPK3 (human) (UniProt Q9H422)
KIT (human) = KIT (human) (UniProt P10721)
JAK3 JH1 JH2 (human) = JAK3 JH1 JH2 (human) (UniProt P52333)
PRKG2 (human) = PRKG2 (human) (UniProt Q13237)
AURKB (human) = AURKB (human) (UniProt Q96GD4)
MAPKAPK5 (human) = MAPKAPK5 (human) (UniProt Q8IW41)
MAP3K14 (human) = MAP3K14 (human) (UniProt Q99558)
DYRK2 (human) = DYRK2 (human) (UniProt Q92630)
STK11 (human) = STK11 (human) (UniProt Q15831)
AXL (human) = AXL (human) (UniProt P30530)
PRKCI (human) = PRKCI (human) (UniProt P41743)
MATK (human) = MATK (human) (UniProt P42679)
CAMK2D (human) = CAMK2D (human) (UniProt Q13557)
ERBB2 (human) = ERBB2 (human) (UniProt P04626)
PIM3 (human) = PIM3 (human) (UniProt Q86V86)
MAPK8 (human) = MAPK8 (human) (UniProt P45983)
RPS6KA2 KD1 KD2 (human) = RPS6KA2 KD1 KD2 (human) (UniProt Q15349)
FER (human) = FER (human) (UniProt P16591)
PAK6 (human) = PAK6 (human) (UniProt Q9NQU5)
NTRK3 (human) = NTRK3 (human) (UniProt Q16288)
PIM1 (human) = PIM1 (human) (UniProt P11309)
NEK1 (human) = NEK1 (human) (UniProt Q96PY6)
CSF1R (human) = CSF1R (human) (UniProt P07333)
IGF1R (human) = IGF1R (human) (UniProt P08069)
PLK3 (human) = PLK3 (human) (UniProt Q9H4B4)
RPS6KA1 KD1 KD2 (human) = RPS6KA1 KD1 KD2 (human) (UniProt Q15418)
MET (human) = MET (human) (UniProt P08581)
AKT2 (human) = AKT2 (human) (UniProt P31751)
CSNK1G2 (human) = CSNK1G2 (human) (UniProt P78368)
STK4 (human) = STK4 (human) (UniProt Q13043)
MARK4 (human) = MARK4 (human) (UniProt Q96L34)
PDGFRA (human) = PDGFRA (human) (UniProt P16234)
CDK7 CCNH MNAT1 (human) = CDK7 CCNH MNAT1 (human) (UniProt P50613+P51948+P51946)
ITK (human) = ITK (human) (UniProt Q08881)
PAK7 (human) = PAK7 (human) (UniProt Q9P286)
MST4 (human) = MST4 (human) (UniProt Q9P289)
STK3 (human) = STK3 (human) (UniProt Q13188)
PRKCB2 (human) = PRKCB2 (human) (UniProt P05771)
Sequence of PRKCB2 (human) (P05771 whole entry, looked up): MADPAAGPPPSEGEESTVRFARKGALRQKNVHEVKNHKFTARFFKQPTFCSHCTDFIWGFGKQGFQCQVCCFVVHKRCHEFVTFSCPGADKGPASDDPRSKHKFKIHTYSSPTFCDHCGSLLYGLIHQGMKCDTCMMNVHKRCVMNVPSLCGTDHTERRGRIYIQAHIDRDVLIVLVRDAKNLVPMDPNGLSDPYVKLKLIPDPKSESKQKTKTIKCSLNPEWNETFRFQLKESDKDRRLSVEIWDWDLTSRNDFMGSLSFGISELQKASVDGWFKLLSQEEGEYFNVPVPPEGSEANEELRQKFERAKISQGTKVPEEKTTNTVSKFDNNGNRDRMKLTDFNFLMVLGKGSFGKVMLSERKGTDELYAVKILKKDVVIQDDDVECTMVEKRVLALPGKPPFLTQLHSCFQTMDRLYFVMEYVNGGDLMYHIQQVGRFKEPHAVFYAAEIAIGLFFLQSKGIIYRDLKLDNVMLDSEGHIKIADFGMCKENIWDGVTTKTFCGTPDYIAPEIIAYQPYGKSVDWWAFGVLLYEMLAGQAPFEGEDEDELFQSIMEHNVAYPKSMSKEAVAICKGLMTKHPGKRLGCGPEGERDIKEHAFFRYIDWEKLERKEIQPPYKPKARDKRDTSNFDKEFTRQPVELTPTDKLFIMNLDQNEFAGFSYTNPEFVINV

Sequence of CSNK1G2 (human) (P78368 whole entry, looked up): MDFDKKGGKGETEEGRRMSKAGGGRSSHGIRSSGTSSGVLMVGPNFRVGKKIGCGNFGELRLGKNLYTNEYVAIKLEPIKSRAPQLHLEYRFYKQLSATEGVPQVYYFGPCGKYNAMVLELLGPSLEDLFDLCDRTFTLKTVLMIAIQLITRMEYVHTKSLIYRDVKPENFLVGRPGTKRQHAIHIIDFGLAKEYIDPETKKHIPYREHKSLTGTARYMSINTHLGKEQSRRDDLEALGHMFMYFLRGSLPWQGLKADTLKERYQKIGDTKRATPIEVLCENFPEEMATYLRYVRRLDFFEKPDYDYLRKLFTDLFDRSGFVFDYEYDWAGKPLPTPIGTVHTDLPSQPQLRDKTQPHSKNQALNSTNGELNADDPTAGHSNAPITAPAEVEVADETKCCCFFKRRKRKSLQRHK
Sequence of PRKCB1 (human) (P05771 whole entry, looked up): as the sequence (P05771 whole entry, looked up) above
Sequence of HIPK3 (human) (Q9H422 whole entry, looked up): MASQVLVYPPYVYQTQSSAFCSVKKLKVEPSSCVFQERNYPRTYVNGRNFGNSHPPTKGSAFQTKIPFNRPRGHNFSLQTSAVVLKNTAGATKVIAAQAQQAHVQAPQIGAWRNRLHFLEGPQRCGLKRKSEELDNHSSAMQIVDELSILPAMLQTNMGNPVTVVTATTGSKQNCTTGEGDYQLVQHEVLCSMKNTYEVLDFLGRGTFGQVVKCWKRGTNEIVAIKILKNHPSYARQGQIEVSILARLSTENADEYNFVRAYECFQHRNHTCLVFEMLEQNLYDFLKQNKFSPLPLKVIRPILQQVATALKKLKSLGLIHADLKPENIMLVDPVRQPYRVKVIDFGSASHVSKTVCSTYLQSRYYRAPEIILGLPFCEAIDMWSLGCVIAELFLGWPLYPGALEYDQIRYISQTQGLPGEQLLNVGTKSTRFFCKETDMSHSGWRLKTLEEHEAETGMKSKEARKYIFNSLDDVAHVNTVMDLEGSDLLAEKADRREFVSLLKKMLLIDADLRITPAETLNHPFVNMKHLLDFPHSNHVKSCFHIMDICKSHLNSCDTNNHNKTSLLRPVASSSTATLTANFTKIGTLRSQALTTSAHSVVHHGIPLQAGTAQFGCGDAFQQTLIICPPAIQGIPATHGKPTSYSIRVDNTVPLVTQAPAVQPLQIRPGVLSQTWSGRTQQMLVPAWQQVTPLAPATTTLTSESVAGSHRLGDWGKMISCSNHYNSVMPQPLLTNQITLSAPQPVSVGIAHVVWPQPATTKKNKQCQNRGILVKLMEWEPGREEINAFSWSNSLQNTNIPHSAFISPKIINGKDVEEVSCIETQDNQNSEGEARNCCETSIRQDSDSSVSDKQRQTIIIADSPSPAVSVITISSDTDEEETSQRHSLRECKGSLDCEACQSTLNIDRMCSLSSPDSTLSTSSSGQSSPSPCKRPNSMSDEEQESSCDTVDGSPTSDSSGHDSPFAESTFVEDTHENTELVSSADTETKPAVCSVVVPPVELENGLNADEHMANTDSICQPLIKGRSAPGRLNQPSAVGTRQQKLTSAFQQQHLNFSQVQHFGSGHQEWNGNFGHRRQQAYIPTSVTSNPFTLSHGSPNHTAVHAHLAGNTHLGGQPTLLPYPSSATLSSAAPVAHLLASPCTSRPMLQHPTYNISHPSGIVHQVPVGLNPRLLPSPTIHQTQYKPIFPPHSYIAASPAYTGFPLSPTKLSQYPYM
Sequence of STK4 (human) (Q13043 whole entry, looked up): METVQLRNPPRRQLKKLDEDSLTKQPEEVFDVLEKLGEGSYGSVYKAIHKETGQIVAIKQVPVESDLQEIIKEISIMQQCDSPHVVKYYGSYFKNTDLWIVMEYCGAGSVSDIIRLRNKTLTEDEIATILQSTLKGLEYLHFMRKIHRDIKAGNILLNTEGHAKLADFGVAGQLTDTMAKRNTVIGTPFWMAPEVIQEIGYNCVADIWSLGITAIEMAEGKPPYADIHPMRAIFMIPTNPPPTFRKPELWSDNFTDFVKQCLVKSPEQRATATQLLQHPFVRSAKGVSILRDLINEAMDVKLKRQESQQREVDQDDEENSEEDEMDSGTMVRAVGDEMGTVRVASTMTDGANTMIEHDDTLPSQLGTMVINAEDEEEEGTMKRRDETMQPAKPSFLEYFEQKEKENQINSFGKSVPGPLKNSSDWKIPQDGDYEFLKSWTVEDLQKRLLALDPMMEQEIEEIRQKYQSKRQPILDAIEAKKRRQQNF
Sequence of PRKG2 (human) (Q13237 whole entry, looked up): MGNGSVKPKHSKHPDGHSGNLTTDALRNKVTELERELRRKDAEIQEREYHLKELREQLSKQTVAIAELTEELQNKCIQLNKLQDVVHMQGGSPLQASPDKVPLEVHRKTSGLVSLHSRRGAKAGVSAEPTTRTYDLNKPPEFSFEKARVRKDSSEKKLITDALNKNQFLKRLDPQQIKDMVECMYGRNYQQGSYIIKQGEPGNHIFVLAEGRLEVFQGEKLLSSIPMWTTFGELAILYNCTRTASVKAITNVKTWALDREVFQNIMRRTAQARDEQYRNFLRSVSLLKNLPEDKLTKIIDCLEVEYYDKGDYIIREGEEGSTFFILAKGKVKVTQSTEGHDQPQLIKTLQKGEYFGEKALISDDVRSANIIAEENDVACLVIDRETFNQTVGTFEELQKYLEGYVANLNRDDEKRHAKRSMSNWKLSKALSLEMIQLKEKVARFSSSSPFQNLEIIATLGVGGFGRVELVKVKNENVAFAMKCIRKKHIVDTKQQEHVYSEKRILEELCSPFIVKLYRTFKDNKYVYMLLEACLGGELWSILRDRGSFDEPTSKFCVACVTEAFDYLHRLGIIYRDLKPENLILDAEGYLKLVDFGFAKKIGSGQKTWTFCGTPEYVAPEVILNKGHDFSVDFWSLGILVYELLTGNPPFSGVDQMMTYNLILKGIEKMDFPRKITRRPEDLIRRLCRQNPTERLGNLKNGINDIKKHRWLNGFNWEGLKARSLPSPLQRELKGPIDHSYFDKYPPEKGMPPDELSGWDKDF
Sequence of CAMK2D (human) (Q13557 whole entry, looked up): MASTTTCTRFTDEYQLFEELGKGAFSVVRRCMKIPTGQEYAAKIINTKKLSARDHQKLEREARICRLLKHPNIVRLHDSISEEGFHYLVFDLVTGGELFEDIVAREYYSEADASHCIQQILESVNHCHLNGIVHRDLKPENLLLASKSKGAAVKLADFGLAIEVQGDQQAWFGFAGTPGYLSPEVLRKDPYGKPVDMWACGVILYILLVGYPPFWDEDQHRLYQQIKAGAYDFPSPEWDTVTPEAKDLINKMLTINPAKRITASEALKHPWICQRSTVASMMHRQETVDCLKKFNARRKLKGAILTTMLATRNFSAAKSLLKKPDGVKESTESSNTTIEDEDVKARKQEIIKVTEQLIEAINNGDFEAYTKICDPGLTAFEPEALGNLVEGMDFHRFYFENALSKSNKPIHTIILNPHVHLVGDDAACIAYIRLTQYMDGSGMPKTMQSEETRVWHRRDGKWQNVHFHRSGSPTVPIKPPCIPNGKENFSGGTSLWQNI

SMILES: COc1cc2c(cc1OC)-c1[nH]nc(Nc3cccc(F)c3)c1C2
- residual activity (PKN2 (human)): 92%
- residual activity (PRKCB1 (human)): 96%
- residual activity (EPHA4 (human)): 93.3%
- residual activity (EPHB2 (human)): 94.8%
- residual activity (HIPK3 (human)): 100%
- residual activity (KIT (human)): 27.9%
- residual activity (JAK3 JH1 JH2 (human)): 98.6%
- residual activity (PRKG2 (human)): 92.5%
- residual activity (AURKB (human)): 79.2%
- residual activity (MAPKAPK5 (human)): 82.3%
- residual activity (MAP3K14 (human)): 105%
- residual activity (DYRK2 (human)): 95.3%
- residual activity (STK11 (human)): 104%
- residual activity (AXL (human)): 96.1%
- residual activity (PRKCI (human)): 95.5%
- residual activity (MATK (human)): 92.1%
- residual activity (CAMK2D (human)): 103%
- residual activity (ERBB2 (human)): 101%
- residual activity (PIM3 (human)): 95.3%
- residual activity (MAPK8 (human)): 85.2%
- residual activity (RPS6KA2 KD1 KD2 (human)): 91.4%
- residual activity (FER (human)): 94%
- residual activity (PAK6 (human)): 84.8%
- residual activity (NTRK3 (human)): 72.6%
- residual activity (PIM1 (human)): 97.3%
- residual activity (NEK1 (human)): 93%
- residual activity (CSF1R (human)): 20%
- residual activity (IGF1R (human)): 93.9%
- residual activity (PLK3 (human)): 94.9%
- residual activity (RPS6KA1 KD1 KD2 (human)): 84.1%
- residual activity (MET (human)): 97.8%
- residual activity (AKT2 (human)): 95.3%
- residual activity (CSNK1G2 (human)): 89.7%
- residual activity (STK4 (human)): 91.5%
- residual activity (MARK4 (human)): 70.6%
- residual activity (PDGFRA (human)): 33.4%
- residual activity (CDK7 CCNH MNAT1 (human)): 101%
- residual activity (ITK (human)): 85.5%
- residual activity (PAK7 (human)): 93.2%
- residual activity (MST4 (human)): 97%
- residual activity (STK3 (human)): 93%
- residual activity (PRKCB2 (human)): 103%

SMILES: Cc1cc(Nc2nc(-c3ccccc3)nc3ccccc23)n[nH]1
- residual activity (PKN2 (human)): 87.2%
- residual activity (PRKCB1 (human)): 99.9%
- residual activity (EPHA4 (human)): 70.7%
- residual activity (EPHB2 (human)): 76.7%
- residual activity (HIPK3 (human)): 88.5%
- residual activity (KIT (human)): 40.8%
- residual activity (JAK3 JH1 JH2 (human)): 96.7%
- residual activity (PRKG2 (human)): 98.2%
- residual activity (AURKB (human)): 52%
- residual activity (MAPKAPK5 (human)): 93.2%
- residual activity (MAP3K14 (human)): 93.5%
- residual activity (DYRK2 (human)): 84%
- residual activity (STK11 (human)): 69%
- residual activity (AXL (human)): 101%
- residual activity (PRKCI (human)): 82.6%
- residual activity (MATK (human)): 96.1%
- residual activity (CAMK2D (human)): 97.3%
- residual activity (ERBB2 (human)): 108%
- residual activity (PIM3 (human)): 130%
- residual activity (MAPK8 (human)): 92%
- residual activity (RPS6KA2 KD1 KD2 (human)): 50.7%
- residual activity (FER (human)): 31.6%
- residual activity (PAK6 (human)): 78.9%
- residual activity (NTRK3 (human)): 2.01%
- residual activity (PIM1 (human)): 83.3%
- residual activity (NEK1 (human)): 93%
- residual activity (CSF1R (human)): 33.1%
- residual activity (IGF1R (human)): 70.8%
- residual activity (PLK3 (human)): 88.3%
- residual activity (RPS6KA1 KD1 KD2 (human)): 58%
- residual activity (MET (human)): 130%
- residual activity (AKT2 (human)): 127%
- residual activity (CSNK1G2 (human)): 69.3%
- residual activity (STK4 (human)): 58%
- residual activity (MARK4 (human)): 83.5%
- residual activity (PDGFRA (human)): 81.6%
- residual activity (CDK7 CCNH MNAT1 (human)): 73.3%
- residual activity (ITK (human)): 45.4%
- residual activity (PAK7 (human)): 53.1%
- residual activity (MST4 (human)): 91.2%
- residual activity (STK3 (human)): 58.5%
- residual activity (PRKCB2 (human)): 87.3%

SMILES: CCOc1cc2ncnc(Nc3cccc(Br)c3)c2cc1OCC
- residual activity (PKN2 (human)): 90%
- residual activity (PRKCB1 (human)): 100%
- residual activity (EPHA4 (human)): 75.1%
- residual activity (EPHB2 (human)): 77%
- residual activity (HIPK3 (human)): 102%
- residual activity (KIT (human)): 74.4%
- residual activity (JAK3 JH1 JH2 (human)): 102%
- residual activity (PRKG2 (human)): 83.9%
- residual activity (AURKB (human)): 91.9%
- residual activity (MAPKAPK5 (human)): 71.6%
- residual activity (MAP3K14 (human)): 93.4%
- residual activity (DYRK2 (human)): 88.8%
- residual activity (STK11 (human)): 88%
- residual activity (AXL (human)): 89.9%
- residual activity (PRKCI (human)): 100%
- residual activity (MATK (human)): 90.5%
- residual activity (CAMK2D (human)): 87%
- residual activity (ERBB2 (human)): 13.8%
- residual activity (PIM3 (human)): 105%
- residual activity (MAPK8 (human)): 90.7%
- residual activity (RPS6KA2 KD1 KD2 (human)): 74.5%
- residual activity (FER (human)): 90.7%
- residual activity (PAK6 (human)): 119%
- residual activity (NTRK3 (human)): 91.5%
- residual activity (PIM1 (human)): 92.1%
- residual activity (NEK1 (human)): 99.2%
- residual activity (CSF1R (human)): 87.6%
- residual activity (IGF1R (human)): 101%
- residual activity (PLK3 (human)): 97.1%
- residual activity (RPS6KA1 KD1 KD2 (human)): 82.8%
- residual activity (MET (human)): 78.6%
- residual activity (AKT2 (human)): 87.6%
- residual activity (CSNK1G2 (human)): 103%
- residual activity (STK4 (human)): 98.5%
- residual activity (MARK4 (human)): 99.2%
- residual activity (PDGFRA (human)): 84.7%
- residual activity (CDK7 CCNH MNAT1 (human)): 93%
- residual activity (ITK (human)): 104%
- residual activity (PAK7 (human)): 99.1%
- residual activity (MST4 (human)): 94.9%
- residual activity (STK3 (human)): 99.5%
- residual activity (PRKCB2 (human)): 98.6%

SMILES: O=C(c1ccccc1)c1ccc(N2CCOCC2)cc1O
- residual activity (PKN2 (human)): 96.8%
- residual activity (PRKCB1 (human)): 90.1%
- residual activity (EPHA4 (human)): 103%
- residual activity (EPHB2 (human)): 94.9%
- residual activity (HIPK3 (human)): 98.1%
- residual activity (KIT (human)): 96.2%
- residual activity (JAK3 JH1 JH2 (human)): 103%
- residual activity (PRKG2 (human)): 102%
- residual activity (AURKB (human)): 95.5%
- residual activity (MAPKAPK5 (human)): 99.8%
- residual activity (MAP3K14 (human)): 75.1%
- residual activity (DYRK2 (human)): 96.8%
- residual activity (STK11 (human)): 104%
- residual activity (AXL (human)): 95.1%
- residual activity (PRKCI (human)): 98.3%
- residual activity (MATK (human)): 92.5%
- residual activity (CAMK2D (human)): 95.1%
- residual activity (ERBB2 (human)): 94.8%
- residual activity (PIM3 (human)): 98.9%
- residual activity (MAPK8 (human)): 99.5%
- residual activity (RPS6KA2 KD1 KD2 (human)): 102%
- residual activity (FER (human)): 94.2%
- residual activity (PAK6 (human)): 93.6%
- residual activity (NTRK3 (human)): 93.7%
- residual activity (PIM1 (human)): 101%
- residual activity (NEK1 (human)): 115%
- residual activity (CSF1R (human)): 99.7%
- residual activity (IGF1R (human)): 106%
- residual activity (PLK3 (human)): 99.1%
- residual activity (RPS6KA1 KD1 KD2 (human)): 96.2%
- residual activity (MET (human)): 115%
- residual activity (AKT2 (human)): 97.9%
- residual activity (CSNK1G2 (human)): 96.1%
- residual activity (STK4 (human)): 103%
- residual activity (MARK4 (human)): 100%
- residual activity (PDGFRA (human)): 91.9%
- residual activity (CDK7 CCNH MNAT1 (human)): 106%
- residual activity (ITK (human)): 99.5%
- residual activity (PAK7 (human)): 99.2%
- residual activity (MST4 (human)): 101%
- residual activity (STK3 (human)): 100%
- residual activity (PRKCB2 (human)): 99.2%
